In patent publication KR20050073110A, “간 x 수용체의 항진제” (주식회사 엘지생명과학, priority 2004, dated 2005):

Assays:
LXRα (pGAL-hLXRα-LBD) = molecular target: T1, LXRα (pGAL-hLXRα-LBD) (Homo sapiens, UniProt Q13133); test: Transient transfection assay (luciferase reporter) in HEK293 / NIH3T3 cells; type: cell-based; details: increasing amounts of compound, without RXRα expression plasmid (Fig. 1)
T1 construct: 수용체 발현 벡터(pGAL-hLXRα-LBD); expressed in transfected cells; host or cells: HEK293 or NIH3T3 cells
T1 sequence (Q13133 209-447 limits assumed): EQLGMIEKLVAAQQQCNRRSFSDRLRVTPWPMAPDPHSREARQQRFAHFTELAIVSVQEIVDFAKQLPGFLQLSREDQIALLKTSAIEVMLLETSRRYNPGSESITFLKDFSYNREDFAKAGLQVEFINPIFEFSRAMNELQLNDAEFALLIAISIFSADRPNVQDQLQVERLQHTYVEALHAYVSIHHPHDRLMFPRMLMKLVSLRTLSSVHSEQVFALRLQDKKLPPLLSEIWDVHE

[1] = molecular target: T2, LXRα ligand-binding domain [LXRα 리간드-결합 도메인] (GST-LXRα-LBD) (Homo sapiens, UniProt Q13133); test: Fluorescence polarization assay (rhodamine-labelled LXXLL peptide recruitment to GST-LXRα-LBD); type: biochemical; details: 10 nM rhodamine-labelled peptide, 200 nM GST-LXRα-LBD, overnight (Fig. 2)
T2 construct: LXRα 리간드-결합 도메인을 글루타치온 S-트랜스퍼라제(GST)의 C-말단에 융합시키고; made in house; host or cells: E. coli
T2 sequence (Q13133 209-447 limits assumed): T1 sequence (Q13133 209-447 limits assumed)

CYP7A = CYP7A assay in liver of orally dosed mice; type: in vivo, C57BL/6J mouse; details: C57BL/6J mice (n=6), single oral administration, liver taken after 8 h; dose not given
[2] = Plasma lipid change experiment in mice; type: in vivo, C57BL/6J mouse; details: 14 days, C57BL/6J mice (n=6), blood 6 h after last dose

Compound | luciferase activity (LXRα-mediated transcription) (LXRα (pGAL-hLXRα-LBD)) | fluorescence polarization activity (coactivator peptide recruitment) [1] | increase in CYP7A activity in liver (CYP7A) [%] | increase in plasma HDL cholesterol ([2]; 30 mg/kg oral) [%] | increase in plasma HDL cholesterol ([2]; 100 mg/kg oral) [%]
CC(C)CC[C@@H](O)[C@@H](C)[C@H]1CC[C@H]2[C@@H]3CC=C4C[C@@H](O)CC[C@]4(C)[C@H]3CC[C@]12C [22(R)-하이드록시콜레스테롤, reference compound] | 용량 의존적으로 루시퍼라제 활성이 증가하였다 | 형광의 증가를 나타내었다 | – | – | –
COC(=O)c1cccc(S(=O)(=O)/C(C#N)=C/c2cc(C(C)C)n(-c3ccccc3C(F)(F)F)c2C)c1 [#182, (E)-2-(3-메톡시카보닐페닐)설포닐-3-[1-(2-트리플루오로메틸페닐)-2-메틸-5-이소프로필피롤-3-일]아크릴로니트릴] | 용량 의존적으로 루시퍼라제 활성이 증가하였다 | – | – | – | –
CC(C)c1cc(/C=C(\C#N)S(=O)(=O)c2ccccc2)cn1-c1ccccc1C(F)(F)F [#189, (E)-2-페닐설포닐-3-[1-(2-트리플루오로메틸페닐)-5-이소프로필피롤-3-일]아크릴로니트릴] | – | – | 91 | 18 | 41
Cc1c(/C=C(\C#N)S(=O)(=O)c2ccccc2)cc(C(C)C)n1-c1ccccc1C(F)(F)F [#44, (E)-2-페닐설포닐-3-[1-(2-트리플루오로메틸페닐)-2-메틸-5-이소프로필피롤-3-일]아크릴로니트릴] | 용량 의존적으로 루시퍼라제 활성이 증가하였다 | – | – | – | –
O=S(=O)(c1ccccc1)N(CC(F)(F)F)c1ccc(C(O)(C(F)(F)F)C(F)(F)F)cc1 [T0901317, reference compound] | 용량 의존적으로 루시퍼라제 활성이 증가하였다 | 가장 높은 활성을 나타내었고 | – | – | –
